# pEC50: −log10 of the molar value.
# System: HBsAg in HepG2.2.15 cells
# Assay: HBsAg assay: inhibition of HBsAg in HepG2.2.15 cells (chemiluminescence immunoassay of supernatant)
# Assay type: cell-based, hepatitis B virus
# Settings: Hepatitis B virus, HepG2.2.15, 144 h, read-out: sAg EC50, HepG2.2.15 cells, supernatant collected at day 6 after exposure, HBsAg CLIA
# How it was run: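 HepG2.2.15 cells treated with serially diluted compounds (0.5% DMSO), medium and compound refreshed after 2-3 days; supernatant HBsAg measured by chemiluminescence immunoassay at day 6. EC50 from dose-response curves; viability assessed in parallel by CellTiter-Glo.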
row,Structure (SMILES),pEC50
1,"CCC1c2cc(OC)c(OC)cc2CN1c1nc(-c2ncccn2)nc2c1COC2 (centres unmarked) [Example 92, 4-(1-Ethyl-5,6-dimethoxyisoindolin-2-yl)-2-(pyrimidin-2-yl)-5,7-dihydrofuro[3,4-d]pyrimidine]",6.74
2,"CCC1c2cc(OC)c(OC)cc2CN1c1nc(-c2ncccn2)nc2scnc12 (centres unmarked) [Example 93, 7-(1-Ethyl-5,6-dimethoxy-isoindolin-2-yl)-5-pyrimidin-2-yl-thiazolo[5,4-d]pyrimidine]",6.70
3,"CCC1c2cc(OC)c(OC)cc2CN1c1nc(-c2ncccn2)nc2c1CCC2 (centres unmarked) [Example 94, 4-(1-Ethyl-5,6-dimethoxy-isoindolin-2-yl)-2-pyrimidin-2-yl-6,7-dihydro-5H-cyclopenta[d]pyrimidine]",6.46
4,"CCC1c2cc(F)c(F)cc2CN1c1ccnc(C(=O)O)n1 (centres unmarked) [Example 95, 4-(1-Ethyl-5,6-difluoroisoindolin-2-yl)pyrimidine-2-carboxylic Acid]",5.70
5,"CCC1c2cc(F)c(OC)cc2CN1c1ccnc(C(=O)O)n1 (centres unmarked) [Example 96, 4-(1-Ethyl-6-fluoro-5-methoxyisoindolin-2-yl)pyrimidine-2-carboxylic Acid]",5.92
6,"CCC1c2cc(OC)c(OC)cc2CN1c1cnc(C(=O)O)nc1 (centres unmarked) [Example 97, 5-(1-Ethyl-5,6-dimethoxyisoindolin-2-yl)pyrimidine-2-carboxylic Acid]",5.30
7,"CCC1c2cc(F)c(OC)cc2CN1c1cnc(C(=O)O)nc1 (centres unmarked) [Example 98, 5-(1-Ethyl-6-fluoro-5-methoxyisoindolin-2-yl)pyrimidine-2-carboxylic Acid]",6.62
8,"CCC1c2cc(F)c(OC)cc2CN1c1cnc(C(=O)NS(C)(=O)=O)nc1 (centres unmarked) [Example 101, 5-(1-Ethyl-6-fluoro-5-methoxyisoindolin-2-yl)-N-(methylsulfonyl)pyrimidine-2-carboxamide]",6.19
9,"CCC1c2cc(F)c(OC)cc2CN1c1ccnc(C(=O)NS(C)(=O)=O)n1 (centres unmarked) [Example 104, 4-(1-Ethyl-6-fluoro-5-methoxyisoindolin-2-yl)-N-(methylsulfonyl)pyrimidine-2-carboxamide]",5.30
10,"CCC1c2cc(F)c(OC)cc2CN1c1cnc(C(=O)Nc2nccn2C)nc1 (centres unmarked) [Example 105, 5-(1-Ethyl-6-fluoro-5-methoxyisoindolin-2-yl)-N-(1-methyl-1H-imidazol-2-yl)pyrimidine-2-carboxamide]",5.22
11,"CCC1c2cc(F)c(OC)cc2CN1c1cnc(C(=O)Nc2ccccn2)nc1 (centres unmarked) [Example 106, 5-(1-Ethyl-6-fluoro-5-methoxyisoindolin-2-yl)-N-(pyridin-2-yl)pyrimidine-2-carboxamide]",5.70
12,"O=c1[nH]cccc1-c1nccc(N2CCc3cc(F)c(F)cc3C2)n1 [Example 111, 3-[4-(6,7-Difluoro-3,4-dihydro-1H-isoquinolin-2-yl)pyrimidin-2-yl]pyridin-2-ol]",4.34
13,"CCC1c2ccc(F)c(F)c2CCN1c1cc(=O)c(C(=O)O)c[nH]1 (centres unmarked) [Example 112, 6-(1-Ethyl-5,6-difluoro-3,4-dihydro-1H-isoquinolin-2-yl)-4-hydroxy-pyridine-3-carboxylic Acid]",4.96
14,"CCC1c2ccc(F)c(F)c2CCN1c1cnc(C(=O)O)nc1 (centres unmarked) [Example 113, 5-(1-Ethyl-5,6-difluoro-3,4-dihydro-1H-isoquinolin-2-yl)pyrimidine-2-carboxylic Acid]",5.70
15,"CCC1c2cc(F)c(OC)cc2CCN1c1cnc(C(N)=O)nc1 (centres unmarked) [Example 118, 5-(1-Ethyl-7-fluoro-6-methoxy-3,4-dihydro-1H-isoquinolin-2-yl)pyrimidine-2-carboxamide]",6.28
16,"CCC1c2cc(F)c(F)cc2CN1c1cnc(C(N)=O)nc1 (centres unmarked) [Example 119, 5-(1-Ethyl-5,6-difluoroisoindolin-2-yl)pyrimidine-2-carboxamide]",4.38
17,"CCC1c2cc(F)c(OC)cc2CCN1c1ccnc(C(N)=O)n1 (centres unmarked) [Example 120, 4-(1-Ethyl-7-fluoro-6-methoxy-3,4-dihydro-1H-isoquinolin-2-yl)pyrimidine-2-carboxamide]",4.85
18,"CCC1c2cc(F)c(F)cc2CN1c1ccnc(C(N)=O)n1 (centres unmarked) [Example 121, 4-(1-Ethyl-5,6-difluoroisoindolin-2-yl)pyrimidine-2-carboxamide]",4.74
19,"CCC1c2ccccc2CCN1c1cnc2c(ccc3cccnc32)c1 (centres unmarked) [Example 122, 3-(1-Ethyl-3,4-dihydroisoquinolin-2(1H)-yl)-1,10-phenanthroline]",5.92
20,"CC1c2ccc(F)c(F)c2CCN1c1cnc2c(ccc3cccnc32)c1 (centres unmarked) [Example 123, 3-(5,6-Difluoro-1-methyl-3,4-dihydroisoquinolin-2(1H)-yl)-1,10-phenanthroline]",6.36
21,"CCC1c2ccccc2CCN1c1cnc2c(NC)nccc2c1 (centres unmarked) [Example 124, 3-(1-Ethyl-3,4-dihydroisoquinolin-2(1H)-yl)-N-methyl-1,7-naphthyridin-8-amine]",4.66
22,"CCC1c2cc(F)c(OC)cc2CCN1c1cnc2c(=O)n(C)cnc2c1 (centres unmarked) [Example 125, 7-(1-Ethyl-7-fluoro-6-methoxy-3,4-dihydroisoquinolin-2(1H)-yl)-3-methylpyrido[3,2-d]pyrimidin-4(3H)-one]",5.80
23,"CCC1c2ccc(F)c(F)c2OCCN1c1ccnc(-c2ncccn2)n1 (centres unmarked) [Example 126, 5-Ethyl-8,9-difluoro-4-(2-pyrimidin-2-ylpyrimidin-4-yl)-3,5-dihydro-2H-1,4-benzoxazepine]",4.55
24,"CCC1c2cc(F)c(OC)cc2CCN1c1ccnc(-c2ncccn2)n1 (centres unmarked) [Example 127, 2-(2,2′-Bipyrimidin-4-yl)-1-ethyl-7-fluoro-6-methoxy-1,2,3,4-tetrahydroisoquinoline]",7.70
25,"CCC1c2cc(F)c(OC)cc2CCN1c1cnc(-c2ncccn2)nc1 (centres unmarked) [Example 132, 2-(2,2′-Bipyrimidin-5-yl)-1-ethyl-7-fluoro-6-methoxy-1,2,3,4-tetrahydroisoquinoline]",8.15
26,"CCC1c2cc(F)c(OC)cc2CCCN1c1ccnc(-c2ncccn2)n1 (centres unmarked) [Example 135, 2-([2,2′-Bipyrimidin]-4-yl)-1-ethyl-8-fluoro-7-methoxy-2,3,4,5-tetrahydro-1H-benzo[c]azepine]",6.00

# — patent US20210251991A1, “SUBSTITUTED 2,2'-BIPYRIMIDINYL COMPOUNDS, ANALOGUES THEREOF, AND METHODS USING SAME” (priority 2018, published 2021)
